The values below come from the supplement of paper PMC11208160.

This data set is described as follows: recombinant UMI read abundance after kanamycin selection (control-corrected) (log10(CPM+1)); higher = more efficient recombination; extreme values may be limits of the assay; sequences stand for … in AGTGCAGAGAAAATCGGCCAGTTTTCTCTGCCTGCAGTCCGCATGCCGTGGGACCCCTTGGGTTCTAACCTGTTGCCTAGATTTATGCAGCGGACTGCCTTTCTCCCAAAGTGATAAACCGG…AGGTTGGTTTCACT; site = the 11-nt donor. Put shortly: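 In Escherichia coli, a pool of donor and donor-binding-loop pairs, each with a 12-nt UMI, was tested for the IS621 bridge recombinase. Plating was on IPTG (0.07 mM) plus kanamycin, or without selection, in two replicates. Recombinant UMIs were amplified by PCR across the donor–target junction and sequenced, and counts were reported as log10(CPM+1) after averaging and control-derived scaling.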
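Also: IS621 bridge recombinase in Escherichia coli cells against a fixed T5 target plasmid.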

On to “CACGTCACATGGACCGGTTTTCCCGGTAATCCGTATTTGGG (site CACGTCACTCC)”, for which the “recombinant UMI read abundance (log10)” value turned out to be 0.0104. The same measure for “CACGTCACATGGACCGGTTTTCCCGGTAATCCGTATTTGGG (site CAGGTCACTCC)”: 0.00985. The same measure for “CACGTCACATGGACCGGTTTTCCCGGTAATCCGTATTTGGG (site CATGTCACTCC)”: 0.012; for “CACGTCCCATGGACCGGTTTTCCCGGTAATCCGTATTTGTT (site CACGACCCTAA)”: 0.22; for “CACGTCCCATGGACCGGTTTTCCCGGTAATCCGTATTTGTT (site CACGCCCCTAA)”: 0.263. “CACGTCCCATGGACCGGTTTTCCCGGTAATCCGTATTTGTT (site CACGGCCCTAA)”: the “recombinant UMI read abundance (log10)” value turned out to be 0.00825. Take “CACGTCCCATGGACCGGTTTTCCCGGTAATCCGTATTTGTT (site CACGTCCCTAA)”: the “recombinant UMI read abundance (log10)” value was found to be 0.326. Consider “CACGTGGCATGGACCGGTTTTCCCGGTAATCCGTATTTGGA (site CACATGGCTTC)”, for which the “recombinant UMI read abundance (log10)” value was found to be 0.429. Take “CACGTGGCATGGACCGGTTTTCCCGGTAATCCGTATTTGGA (site CACCTGGCTTC)”: the “recombinant UMI read abundance (log10)” value came to 0.475. Turning to “CACGTGGCATGGACCGGTTTTCCCGGTAATCCGTATTTGGA (site CACGTGGCTTC)”, the “recombinant UMI read abundance (log10)” value was 1.2. As to “CACGTGGCATGGACCGGTTTTCCCGGTAATCCGTATTTGGA (site CACTTGGCTTC)”, the “recombinant UMI read abundance (log10)” value was 0.235. For the sequence “CACTAGCCATGGACCGGTTTTCCCGGTAATCCGTATTTGCC (site CACTAGCCTGG)”, the “recombinant UMI read abundance (log10)” value stood at 0.665. As to “CACTAGCCATGGACCGGTTTTCCCGGTAATCCGTATTTGCC (site CCCTAGCCTGG)”, the “recombinant UMI read abundance (log10)” value stood at 0.

Take “CACTAGCCATGGACCGGTTTTCCCGGTAATCCGTATTTGCC (site CGCTAGCCTGG)”: the “recombinant UMI read abundance (log10)” value was 0. For the sequence “CACTAGCCATGGACCGGTTTTCCCGGTAATCCGTATTTGCC (site CTCTAGCCTGG)”, the “recombinant UMI read abundance (log10)” value worked out at 0. Regarding “CACTAGGCATGGACCGGTTTTCCCGGTAATCCGTATTTGAT (site CACTAGGCTAT)”, the “recombinant UMI read abundance (log10)” value stood at 1.33. Regarding “CACTCGACATGGACCGGTTTTCCCGGTAATCCGTATTTGTG (site CACTCGACTCA)”, the “recombinant UMI read abundance (log10)” value is 0.319. Turning to “CACTCGTCATGGACCGGTTTTCCCGGTAATCCGTATTTGCC (site CACTCATCTGG)”, the “recombinant UMI read abundance (log10)” value was determined as 2.88. For “CACTCGTCATGGACCGGTTTTCCCGGTAATCCGTATTTGCC (site CACTCCTCTGG)”, the “recombinant UMI read abundance (log10)” value came out at 0. The same measure for “CACTCGTCATGGACCGGTTTTCCCGGTAATCCGTATTTGCC (site CACTCGTCTGG)”: 3.2. “CACTCGTCATGGACCGGTTTTCCCGGTAATCCGTATTTGCC (site CACTCTTCTGG)”: the “recombinant UMI read abundance (log10)” value is 0. For “CACTCTTCATGGACCGGTTTTCCCGGTAATCCGTATTTGTT (site CACTCTTCTAA)”, the “recombinant UMI read abundance (log10)” value was found to be 1.58.

Take “CACTGACCATGGACCGGTTTTCCCGGTAATCCGTATTTGGG (site CACTGACCTCC)”: the “recombinant UMI read abundance (log10)” value is 0.00646. For “CACTGCTCATGGACCGGTTTTCCCGGTAATCCGTATTTGCC (site CACTACTCTGG)”, the “recombinant UMI read abundance (log10)” value turned out to be 2. As to “CACTGCTCATGGACCGGTTTTCCCGGTAATCCGTATTTGCC (site CACTCCTCTGG)”, the “recombinant UMI read abundance (log10)” value was determined as 0. As to “CACTGCTCATGGACCGGTTTTCCCGGTAATCCGTATTTGCC (site CACTGCTCTGG)”, the “recombinant UMI read abundance (log10)” value turned out to be 2.93.

With “CACTGCTCATGGACCGGTTTTCCCGGTAATCCGTATTTGCC (site CACTTCTCTGG)”, the “recombinant UMI read abundance (log10)” value turned out to be 0.

As to “CACTTCTCATGGACCGGTTTTCCCGGTAATCCGTATTTGCC (site CACTACTCTGG)”, the “recombinant UMI read abundance (log10)” value was 1.09. “CACTTCTCATGGACCGGTTTTCCCGGTAATCCGTATTTGCC (site CACTCCTCTGG)”: the “recombinant UMI read abundance (log10)” value was determined as 1.41. With “CACTTCTCATGGACCGGTTTTCCCGGTAATCCGTATTTGCC (site CACTGCTCTGG)”, the “recombinant UMI read abundance (log10)” value was found to be 0. As to “CACTTCTCATGGACCGGTTTTCCCGGTAATCCGTATTTGCC (site CACTTCTCTGG)”, the “recombinant UMI read abundance (log10)” value stood at 2.12. On to “CACTTGACATGGACCGGTTTTCCCGGTAATCCGTATTTGGA (site CACTTGACTTC)”, for which the “recombinant UMI read abundance (log10)” value stood at 0.194. Consider “CACTTGACATGGACCGGTTTTCCCGGTAATCCGTATTTGGA (site CACTTGCCTTC)”, for which the “recombinant UMI read abundance (log10)” value amounted to 0.0198.

For “CACTTGACATGGACCGGTTTTCCCGGTAATCCGTATTTGGA (site CACTTGGCTTC)”, the “recombinant UMI read abundance (log10)” value stood at 0.369. Take “CACTTGACATGGACCGGTTTTCCCGGTAATCCGTATTTGGA (site CACTTGTCTTC)”: the “recombinant UMI read abundance (log10)” value came out at 0.138.

Take “CACTTGGCATGGACCGGTTTTCCCGGTAATCCGTATTTGAA (site CACTTGGCTTA)”: the “recombinant UMI read abundance (log10)” value is 0.431.

On to “CACTTGGCATGGACCGGTTTTCCCGGTAATCCGTATTTGAA (site CACTTGGCTTC)”, for which the “recombinant UMI read abundance (log10)” value was determined as 0.236.

As for “CACTTGGCATGGACCGGTTTTCCCGGTAATCCGTATTTGAA (site CACTTGGCTTG)”, the “recombinant UMI read abundance (log10)” value stood at 1.05.

“CACTTGGCATGGACCGGTTTTCCCGGTAATCCGTATTTGAA (site CACTTGGCTTT)”: the “recombinant UMI read abundance (log10)” value came to 1.33. Turning to “CACTTGGCATGGACCGGTTTTCCCGGTAATCCGTATTTGGT (site CACTTGGCTAC)”, the “recombinant UMI read abundance (log10)” value is 1.79. Regarding “CACTTGGCATGGACCGGTTTTCCCGGTAATCCGTATTTGGT (site CACTTGGCTCC)”, the “recombinant UMI read abundance (log10)” value stood at 0.103.

For “CACTTGGCATGGACCGGTTTTCCCGGTAATCCGTATTTGGT (site CACTTGGCTGC)”, the “recombinant UMI read abundance (log10)” value amounted to 1.88.

As to “CACTTGGCATGGACCGGTTTTCCCGGTAATCCGTATTTGGT (site CACTTGGCTTC)”, the “recombinant UMI read abundance (log10)” value worked out at 0.0133. With “CACTTGGCATGGACCGGTTTTCCCGGTAATCCGTATTTGTA (site CACTTGGCTTA)”, the “recombinant UMI read abundance (log10)” value worked out at 1.46.

For “CACTTGGCATGGACCGGTTTTCCCGGTAATCCGTATTTGTA (site CACTTGGCTTC)”, the “recombinant UMI read abundance (log10)” value stood at 0.00904. For the sequence “CACTTGGCATGGACCGGTTTTCCCGGTAATCCGTATTTGTA (site CACTTGGCTTG)”, the “recombinant UMI read abundance (log10)” value turned out to be 1.47. “CACTTGGCATGGACCGGTTTTCCCGGTAATCCGTATTTGTA (site CACTTGGCTTT)”: the “recombinant UMI read abundance (log10)” value is 0.75.

Turning to “CACTTTCCATGGACCGGTTTTCCCGGTAATCCGTATTTGAG (site CACTTTCCTCT)”, the “recombinant UMI read abundance (log10)” value came to 0.0778. Consider “CACTTTGCATGGACCGGTTTTCCCGGTAATCCGTATTTGGA (site CACTTAGCTTC)”, for which the “recombinant UMI read abundance (log10)” value was found to be 0.0269.

Turning to “CACTTTGCATGGACCGGTTTTCCCGGTAATCCGTATTTGGA (site CACTTCGCTTC)”, the “recombinant UMI read abundance (log10)” value turned out to be 0.0129. Then “CACTTTGCATGGACCGGTTTTCCCGGTAATCCGTATTTGGA (site CACTTGGCTTC)”, with 0.0264.

As for “CACTTTGCATGGACCGGTTTTCCCGGTAATCCGTATTTGGA (site CACTTTGCTTC)”, the “recombinant UMI read abundance (log10)” value amounted to 1.71. Turning to “CAGAACCCATGGACCGGTTTTCCCGGTAATCCGTATTTGCC (site CAGAACCCTGG)”, the “recombinant UMI read abundance (log10)” value is 0. “CAGAATCCATGGACCGGTTTTCCCGGTAATCCGTATTTGAT (site CAGAATCCTAT)”: the “recombinant UMI read abundance (log10)” value was 1.84.

As for “CAGAATCCATGGACCGGTTTTCCCGGTAATCCGTATTTGAT (site CGGAATCCTAA)”, the “recombinant UMI read abundance (log10)” value worked out at 0. With “CAGAATCCATGGACCGGTTTTCCCGGTAATCCGTATTTGTT (site CAGAATCCTAA)”, the “recombinant UMI read abundance (log10)” value amounted to 2.07. On to “CAGAATCCATGGACCGGTTTTCCCGGTAATCCGTATTTGTT (site CCGAATCCTAA)”, for which the “recombinant UMI read abundance (log10)” value worked out at 0.

As to “CAGAATCCATGGACCGGTTTTCCCGGTAATCCGTATTTGTT (site CGGAATCCTAA)”, the “recombinant UMI read abundance (log10)” value is 0.0121.

Take “CAGAATCCATGGACCGGTTTTCCCGGTAATCCGTATTTGTT (site CTGAATCCTAA)”: the “recombinant UMI read abundance (log10)” value was 0. For “CAGAGGCCATGGACCGGTTTTCCCGGTAATCCGTATTTGCT (site CAGAGGCCTAG)”, the “recombinant UMI read abundance (log10)” value was 1.68. Then “CAGAGTCCATGGACCGGTTTTCCCGGTAATCCGTATTTGCC (site CAGAGTCCTGG)”, with 1.8; and “CAGAGTCCATGGACCGGTTTTCCCGGTAATCCGTATTTGTT (site CAGAGTCCTAA)”, with 1.92. On to “CAGAGTCCATGGACCGGTTTTCCCGGTAATCCGTATTTGTT (site CGGAATCCTAA)”, for which the “recombinant UMI read abundance (log10)” value was determined as 0.

With “CAGATAACATGGACCGGTTTTCCCGGTAATCCGTATTTGGG (site CAGATAACTCC)”, the “recombinant UMI read abundance (log10)” value was found to be 1.1. Consider “CAGCAACCATGGACCGGTTTTCCCGGTAATCCGTATTTGCA (site CAGCAACCTTG)”, for which the “recombinant UMI read abundance (log10)” value turned out to be 0. On to “CAGCAATCATGGACCGGTTTTCCCGGTAATCCGTATTTGGT (site CAGCAATCTAC)”, for which the “recombinant UMI read abundance (log10)” value amounted to 2.73. “CAGCCTTCATGGACCGGTTTTCCCGGTAATCCGTATTTGGT (site AAGCCTTCTAC)”: the “recombinant UMI read abundance (log10)” value was 0. Regarding “CAGCCTTCATGGACCGGTTTTCCCGGTAATCCGTATTTGGT (site CAGCCTTCTAC)”, the “recombinant UMI read abundance (log10)” value stood at 0.949.
